Measurements from ChEMBL document CHEMBL4828709, “Discovery of 2,4-pyrimidinediamine derivatives as potent dual inhibitors of ALK and HDAC” (Eur J Med Chem, 2021).
Active and inactive are the calls of the source. The rule behind the calls is not given here.

Legend:
[1] = test system: SH-SY5Y; assay: cells; assay type: functional, cell-based; details: Homo sapiens, 72 h
Description: Antiproliferative activity against human SH-SY5Y cells harboring ALK F1174L mutant assessed as inhibition of cell proliferation measured after 72 hrs by CCK8 assay

[2] = target: T1, ALK tyrosine kinase receptor (Homo sapiens, UniProt Q9UM73)
Target sequence in this assay (Q9UM73 whole entry): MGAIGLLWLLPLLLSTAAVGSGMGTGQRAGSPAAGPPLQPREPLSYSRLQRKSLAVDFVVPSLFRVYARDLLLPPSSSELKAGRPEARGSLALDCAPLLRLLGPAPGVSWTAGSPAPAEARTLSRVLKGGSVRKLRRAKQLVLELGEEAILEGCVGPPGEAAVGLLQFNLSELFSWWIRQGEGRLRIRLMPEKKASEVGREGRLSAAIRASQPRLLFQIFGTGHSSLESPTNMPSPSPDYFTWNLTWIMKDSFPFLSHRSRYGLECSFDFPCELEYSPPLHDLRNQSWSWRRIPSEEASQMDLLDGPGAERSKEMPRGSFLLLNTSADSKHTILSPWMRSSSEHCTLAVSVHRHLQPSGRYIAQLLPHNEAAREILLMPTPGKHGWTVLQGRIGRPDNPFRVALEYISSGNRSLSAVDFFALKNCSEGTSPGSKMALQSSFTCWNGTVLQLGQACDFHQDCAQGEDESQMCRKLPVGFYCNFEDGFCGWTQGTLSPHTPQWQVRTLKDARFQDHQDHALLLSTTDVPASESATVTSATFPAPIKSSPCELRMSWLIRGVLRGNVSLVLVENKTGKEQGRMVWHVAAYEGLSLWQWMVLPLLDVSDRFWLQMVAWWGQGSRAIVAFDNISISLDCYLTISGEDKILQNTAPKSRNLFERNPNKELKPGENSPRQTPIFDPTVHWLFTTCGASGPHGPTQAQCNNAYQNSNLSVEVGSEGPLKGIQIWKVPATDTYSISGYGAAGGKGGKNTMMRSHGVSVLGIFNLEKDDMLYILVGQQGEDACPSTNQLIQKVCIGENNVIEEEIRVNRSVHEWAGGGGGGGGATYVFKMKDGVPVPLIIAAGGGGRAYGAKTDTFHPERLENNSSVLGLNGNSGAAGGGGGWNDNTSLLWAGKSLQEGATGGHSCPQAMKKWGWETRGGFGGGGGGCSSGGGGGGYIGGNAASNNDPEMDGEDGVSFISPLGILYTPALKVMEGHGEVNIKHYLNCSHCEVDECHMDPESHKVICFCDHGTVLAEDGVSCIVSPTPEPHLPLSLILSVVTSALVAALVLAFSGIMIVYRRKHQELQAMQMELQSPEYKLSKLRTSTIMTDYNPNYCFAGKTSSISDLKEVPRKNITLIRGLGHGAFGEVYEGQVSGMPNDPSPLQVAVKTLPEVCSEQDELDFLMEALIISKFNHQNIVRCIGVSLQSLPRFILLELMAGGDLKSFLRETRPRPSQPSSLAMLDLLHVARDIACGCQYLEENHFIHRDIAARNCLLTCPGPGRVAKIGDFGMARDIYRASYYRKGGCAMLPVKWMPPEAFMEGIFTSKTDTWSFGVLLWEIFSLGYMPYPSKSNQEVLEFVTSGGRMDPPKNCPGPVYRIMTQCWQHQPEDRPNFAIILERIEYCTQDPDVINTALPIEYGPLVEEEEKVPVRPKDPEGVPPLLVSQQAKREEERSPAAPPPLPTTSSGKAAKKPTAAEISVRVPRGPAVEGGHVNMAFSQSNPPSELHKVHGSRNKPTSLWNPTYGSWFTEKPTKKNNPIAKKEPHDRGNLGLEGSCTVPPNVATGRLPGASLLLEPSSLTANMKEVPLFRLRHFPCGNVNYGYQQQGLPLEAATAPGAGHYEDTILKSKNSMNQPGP
Description: Inhibition of ALK (unknown origin) preincubated for 10 mins followed by addition of substrate and ATP for 25 mins by caliper EZ reader method

[3] = test system: HepG2; assay: cells; assay type: functional, cell-based; details: Homo sapiens, HepG2, 72 h
Description: Antiproliferative activity against human HepG2 cells assessed as inhibition of cell proliferation measured after 72 hrs by CCK8 assay

[4] = test system: NCI-H2228; assay: cells; assay type: functional, cell-based; details: Homo sapiens, NCI-H2228, 72 h
[5] = test system: SH-SY5Y; assay: Antimigratory activity against human SH-SY5Y cells assessed as wound closure at 0.4 uM measured after 48 hrs by cell scratch assay (reference value: 15.1%); assay type: functional
[6] = test system: MDA-MB-231; assay: Induction of apoptosis in human MDA-MB-231 cells assessed as orange-red fluorescence intensity at 1 to 4 uM measured after 24 hrs by AO/EB staining based fluorescence microscopy; assay type: functional, cell-based; details: dose 1-4 µM
[7] = test system: MDA-MB-231; assay: Induction of apoptosis in human MDA-MB-231 cells assessed as early apoptotic cells at 1 uM measured after 24 hrs by Annexin V-FITC/PI staining based flowcytometry ( Rvb = […]%); assay type: functional
[8] = test system: MDA-MB-231; assay: Induction of apoptosis in human MDA-MB-231 cells assessed as late apoptotic cells at 1 uM measured after 24 hrs by Annexin V-FITC/PI staining based flowcytometry ( Rvb = 5.28%); assay type: functional
[9] = test system: MDA-MB-231; assay: Induction of apoptosis in human MDA-MB-231 cells assessed as viable cells at 2 uM measured after 24 hrs by Annexin V-FITC/PI staining based flowcytometry (reference value: 93.14%); assay type: functional; details: read-out: Activity
[10] = test system: MDA-MB-231; assay: Induction of apoptosis in human MDA-MB-231 cells assessed as viable cells at 4 uM measured after 24 hrs by Annexin V-FITC/PI staining based flowcytometry (reference value: 93.14%); assay type: functional; details: read-out: Activity
[11] = test system: MDA-MB-231; assay: Induction of apoptosis in human MDA-MB-231 cells assessed as late apoptotic cells at 4 uM measured after 24 hrs by Annexin V-FITC/PI staining based flowcytometry (reference value: 5.28%); assay type: functional
[12] = test system: MDA-MB-231; assay: Induction of apoptosis in human MDA-MB-231 cells assessed as necrotic cells at 4 uM measured after 24 hrs by Annexin V-FITC/PI staining based flowcytometry (reference value: 0.98%); assay type: functional
[13] = test system: SH-SY5Y; assay: Induction of apoptosis in human SH-SY5Y cells assessed as viable cells at 2 uM measured after 24 hrs by Annexin V-FITC/PI staining based flowcytometry (reference value: 77.05%); assay type: functional; details: read-out: Activity
[14] = test system: SH-SY5Y; assay: Induction of apoptosis in human SH-SY5Y cells assessed as late apoptotic cells at 2 uM measured after 24 hrs by Annexin V-FITC/PI staining based flowcytometry (reference value: 14.32%); assay type: functional
[15] = test system: SH-SY5Y; assay: Induction of apoptosis in human SH-SY5Y cells assessed as viable cells at 4 uM measured after 24 hrs by Annexin V-FITC/PI staining based flowcytometry (reference value: 77.05%); assay type: functional; details: read-out: Activity
[16] = test system: SH-SY5Y; assay: Induction of apoptosis in human SH-SY5Y cells assessed as necrotic cells at 4 uM measured after 24 hrs by Annexin V-FITC/PI staining based flowcytometry (reference value: 7.81%); assay type: functional
[17] = test system: MDA-MB-231; assay: Cell cycle arrest in human MDA-MB-231 cells assessed as accumulation of cells at S phase at 1 uM measured after 24 hrs by PI staining based flowcytometry method (reference value: 20.81%); assay type: functional
[18] = test system: MDA-MB-231; assay: Cell cycle arrest in human MDA-MB-231 cells assessed as accumulation of cells at G1 phase at 2 uM measured after 24 hrs by PI staining based flowcytometry method (reference value: 55.32%); assay type: functional
[19] = test system: MDA-MB-231; assay: Cell cycle arrest in human MDA-MB-231 cells assessed as accumulation of cells at G2 phase at 2 uM measured after 24 hrs by PI staining based flowcytometry method (reference value: 23.89%); assay type: functional
[20] = test system: MDA-MB-231; assay: Cell cycle arrest in human MDA-MB-231 cells assessed as accumulation of cells at S phase at 4 uM measured after 24 hrs by PI staining based flowcytometry method (reference value: 20.81%); assay type: functional
[21] = test system: SH-SY5Y; assay: Cell cycle arrest in human SH-SY5Y cells assessed as accumulation of cells at S phase at 2 uM measured after 24 hrs by PI staining based flowcytometry method (reference value: 27.69%); assay type: functional
[22] = test system: SH-SY5Y; assay: Cell cycle arrest in human SH-SY5Y cells assessed as accumulation of cells at G1 phase at 4 uM measured after 24 hrs by PI staining based flowcytometry method (reference value: 59.8%); assay type: functional
[23] = target: T2, Histone deacetylase (Homo sapiens) (UniProt Q13547+O15379+Q9UBN7+Q92769+Q9UQL6+Q8WUI4+Q9BY41+Q96DB2+P56524+Q9UKV0+Q969S8); assay: Inhibition of HDAC in human MDA-MB-231 cells assessed as increase of intracellular acetylated histone H3 level at 1 to 4 uM measured after 24 hrs by Western blot assay; assay type: cell-based; details: dose 1-4 µM
[24] = target: T1, ALK tyrosine kinase receptor; assay: Inhibition of ALK in human MDA-MB-231 cells assessed as inhibition of AKT phosphorylation at Ser473 residue at 4 uM measured after 24 hrs by Western blot assay; assay type: cell-based
Target sequence in this assay (Q9UM73 19-1620 limits assumed): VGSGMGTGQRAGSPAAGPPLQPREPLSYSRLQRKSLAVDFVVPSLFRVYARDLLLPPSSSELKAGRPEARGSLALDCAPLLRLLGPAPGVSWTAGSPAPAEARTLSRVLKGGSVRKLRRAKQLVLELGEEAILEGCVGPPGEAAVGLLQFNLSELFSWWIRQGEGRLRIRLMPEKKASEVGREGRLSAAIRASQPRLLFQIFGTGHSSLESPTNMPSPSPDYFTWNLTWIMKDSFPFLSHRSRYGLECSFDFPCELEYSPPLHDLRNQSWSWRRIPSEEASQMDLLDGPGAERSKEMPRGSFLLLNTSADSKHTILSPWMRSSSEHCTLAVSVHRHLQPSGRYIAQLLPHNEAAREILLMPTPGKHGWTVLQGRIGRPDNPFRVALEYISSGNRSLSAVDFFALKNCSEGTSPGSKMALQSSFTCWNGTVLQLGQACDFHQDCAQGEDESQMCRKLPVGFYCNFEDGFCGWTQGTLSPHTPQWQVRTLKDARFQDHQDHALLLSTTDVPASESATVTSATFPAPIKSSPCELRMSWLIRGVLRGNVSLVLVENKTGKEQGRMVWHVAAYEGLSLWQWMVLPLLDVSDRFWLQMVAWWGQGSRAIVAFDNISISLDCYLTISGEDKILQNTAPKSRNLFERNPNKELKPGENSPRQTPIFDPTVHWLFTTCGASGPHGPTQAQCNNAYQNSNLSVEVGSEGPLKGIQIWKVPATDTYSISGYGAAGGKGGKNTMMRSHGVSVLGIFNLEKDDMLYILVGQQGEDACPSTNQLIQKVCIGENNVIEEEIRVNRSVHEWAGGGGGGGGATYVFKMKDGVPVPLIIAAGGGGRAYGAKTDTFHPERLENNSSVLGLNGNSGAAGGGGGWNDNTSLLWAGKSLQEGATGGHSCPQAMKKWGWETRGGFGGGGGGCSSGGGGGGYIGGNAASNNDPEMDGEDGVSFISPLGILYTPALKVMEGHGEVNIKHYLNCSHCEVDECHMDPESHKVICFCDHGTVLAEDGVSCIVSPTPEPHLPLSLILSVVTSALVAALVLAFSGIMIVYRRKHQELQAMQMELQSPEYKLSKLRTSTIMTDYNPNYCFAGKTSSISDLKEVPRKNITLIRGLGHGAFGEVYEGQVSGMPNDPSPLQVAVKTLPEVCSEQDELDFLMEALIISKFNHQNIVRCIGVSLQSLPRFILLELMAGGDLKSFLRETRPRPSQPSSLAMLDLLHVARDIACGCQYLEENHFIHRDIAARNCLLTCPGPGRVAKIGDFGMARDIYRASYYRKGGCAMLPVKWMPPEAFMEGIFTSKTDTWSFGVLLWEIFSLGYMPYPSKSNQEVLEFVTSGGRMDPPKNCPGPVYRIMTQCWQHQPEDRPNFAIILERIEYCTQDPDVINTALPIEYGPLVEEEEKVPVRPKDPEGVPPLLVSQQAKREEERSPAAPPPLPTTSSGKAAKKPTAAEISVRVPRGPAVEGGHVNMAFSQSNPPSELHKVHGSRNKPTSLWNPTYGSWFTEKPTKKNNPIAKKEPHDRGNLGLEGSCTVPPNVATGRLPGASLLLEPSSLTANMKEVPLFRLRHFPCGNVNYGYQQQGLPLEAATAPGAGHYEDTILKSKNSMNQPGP

[25] = target: T1, ALK tyrosine kinase receptor; assay: Inhibition of human ALK at 1 uM
Target sequence in this assay (Q9UM73 19-1620 limits assumed): as above

[26] = species on record: Homo sapiens; assay: Inhibition of human Aurora kinase at 1 uM
[27] = AUC (0 to infinity) in Sprague-Dawley rat at 1 mg/kg, iv measured for 12 hrs by LC-MS/MS analysis; assay type: ADME, organism-based; parameters: route intravenous, dose 1 mg/kg, time 12 hrs; details: in vivo
[28] = Cmax in Sprague-Dawley rat at 1 mg/kg, iv measured for 12 hrs by LC-MS/MS analysis; assay type: ADME, organism-based; parameters: route intravenous, time 12 hrs, dose 1 mg/kg; details: in vivo
[29] = MRT (0 to infinity) in Sprague-Dawley rat at 1 mg/kg, iv measured for 12 hrs by LC-MS/MS analysis; assay type: ADME, organism-based; details: in vivo
[30] = test system: ALK tyrosine kinase receptor (Homo sapiens), Q9UM73 [G1202R]; assay: Potency index, ratio of ceritinib IC50 to test compound IC50 for inhibition of ALK G1202R mutant (unknown origin)
Sequence of ALK tyrosine kinase receptor (Homo sapiens), Q9UM73 [G1202R] (Q9UM73 whole entry G1202R): as the sequence (Q9UM73 whole entry) above, with G1202R counted along it

[31] = test system: HepG2; assay: Potency index, ratio of crizotinib IC50 to test compound IC50 for human HepG2 cells assessed as inhibition of cell proliferation measured after 72 hrs by CCK8 assay; assay type: functional
[32] = test system: A549; assay: Potency index, ratio of ceritinib IC50 to test compound IC50 for human A549 cells assessed as inhibition of cell proliferation measured after 72 hrs by CCK8 assay; assay type: functional
[33] = test system: NCI-H2228; assay: Potency index, ratio of ceritinib IC50 to test compound IC50 for human NCI-H2228 cells harboring EML4/ALK […] assessed as inhibition of cell proliferation measured after 72 hrs by CCK8 assay; assay type: functional
[34] = target: T2, Histone deacetylase (Homo sapiens); assay: Inhibition of HDAC in human SH-SY5Y cells assessed as increase of intracellular acetylated histone H3 level at 1 to 4 uM measured after 24 hrs by Western blot assay; assay type: cell-based; details: dose 1-4 µM
[35] = target: T1, ALK tyrosine kinase receptor; assay: Inhibition of human ALK in human SH-SY5Y cells assessed as inhibition of Akt phosphorylation at Ser473 residue at 4 uM measured after 24 hrs by Western blot assay; assay type: cell-based
Target sequence in this assay (Q9UM73 19-1620 limits assumed): as the sequence (Q9UM73 19-1620 limits assumed) above

CC(C)S(=O)(=O)c1ccccc1Nc1nc(Nc2ccc(NC(=O)CCCCCCC(=O)NO)cc2)ncc1Cl
IC50 [1]: 110 nM
IC50 [2]: 2.1 nM
IC50 [3]: 640 nM
IC50 [4]: 130 nM
Activity [5]: 2.8%
Activity [6]: Active
Activity [7]: 1.96%
Activity [8]: 8.79%
viability at 2 µM [9]: 85.1%
viability at 4 µM [10]: 76.9%
Activity [11]: 14.85%
Activity [12]: 3.86%
viability at 2 µM [13]: 58.6%
Activity [14]: 28.89%
viability at 4 µM [15]: 38.3%
Activity [16]: 12.95%
Activity [17]: 32.42%
Activity [18]: 32.53%
Activity [19]: 49.05%
Activity [20]: 14.37%
Activity [21]: 20.49%
Activity [22]: 4.38%
inhibition [23]: Active
inhibition [24]: Active
inhibition [25]: Active
inhibition [26]: 95%
AUC(0-inf) [27]: 205 ng·h/mL
Cmax [28]: 1480 ng/mL
MRT [29]: 7.8 min
Ratio IC50 [30]: 10
Ratio IC50 [31]: 3
Ratio IC50 [32]: 3
Ratio IC50 [33]: 3
inhibition [34]: Active
inhibition [35]: Active
